Target: human metabotropic Glutamate 4 receptor (mGluR4) (Homo sapiens (Human), UniProt Q14833)
Experiment: Assay A: in vitro testing of mGluR4 potency (glutamate-induced cAMP lowering, HTRF cAMP)
Assay type: cell-based
Conditions: HEK293 cells overexpressing human mGluR4; 10 uM L-glutamic acid, 1 uM forskolin; compounds of the present invention
Summary of the method: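 HEK293 cells overexpressing human mGluR4 treated 30 min at room temperature with compound plus 10 uM L-glutamate, 1 uM forskolin, 0.5 mM IBMX, 0.1% BSA, 1% DMSO. cAMP read by HTRF (665/615 nm ratio), normalized to glutamate (100%) and no-glutamate (0%) controls as percent of control.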

human metabotropic Glutamate 4 receptor (mGluR4), sequence (Q14833 33-912): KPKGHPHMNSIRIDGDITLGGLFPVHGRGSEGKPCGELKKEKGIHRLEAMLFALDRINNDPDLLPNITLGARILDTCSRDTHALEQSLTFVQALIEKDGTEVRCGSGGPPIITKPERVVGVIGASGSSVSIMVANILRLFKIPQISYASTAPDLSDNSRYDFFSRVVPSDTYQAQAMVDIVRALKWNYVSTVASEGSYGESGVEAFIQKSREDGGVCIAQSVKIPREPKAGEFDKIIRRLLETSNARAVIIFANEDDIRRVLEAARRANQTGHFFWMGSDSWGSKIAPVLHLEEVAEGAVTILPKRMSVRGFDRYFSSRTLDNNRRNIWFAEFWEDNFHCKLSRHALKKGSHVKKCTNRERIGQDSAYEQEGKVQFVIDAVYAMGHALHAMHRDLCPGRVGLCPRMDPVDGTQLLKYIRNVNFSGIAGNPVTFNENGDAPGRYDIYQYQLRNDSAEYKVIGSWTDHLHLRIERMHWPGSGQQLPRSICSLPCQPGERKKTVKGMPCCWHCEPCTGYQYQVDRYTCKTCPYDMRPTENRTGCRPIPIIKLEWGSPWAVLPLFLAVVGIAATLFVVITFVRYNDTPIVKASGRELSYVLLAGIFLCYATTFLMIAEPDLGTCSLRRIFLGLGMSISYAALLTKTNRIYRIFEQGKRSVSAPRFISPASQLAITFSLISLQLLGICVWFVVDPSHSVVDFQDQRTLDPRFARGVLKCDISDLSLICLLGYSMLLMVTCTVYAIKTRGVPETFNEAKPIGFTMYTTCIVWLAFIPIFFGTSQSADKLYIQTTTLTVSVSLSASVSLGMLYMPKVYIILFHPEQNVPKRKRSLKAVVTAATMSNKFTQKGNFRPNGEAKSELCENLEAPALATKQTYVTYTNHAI

Molecule	IC50 [nM]
Cc1cnc(C(=O)NC(c2nc3cc(C(F)(F)F)ccc3n2C)C2CCCOC2)cn1 (single isomer, unassigned) [Example 82-2, 5-methyl-N-{[1-methyl-5-(trifluoromethyl)-1H-1,3-benzodiazol-2-yl](oxan-3-yl)methyl}pyrazine-2-carboxamide]	32
CCn1c([C@@H](NC(=O)c2cnc(C)cn2)[C@@H]2CCOC2)nc2cc(C(F)(F)F)ccc21 [Example 140, N-[(S)-[1-ethyl-5-(trifluoromethyl)-1H-1,3-benzodiazol-2-yl][(3S)-oxolan-3-yl]methyl]-5-methylpyrazine-2-carboxamide]	12
CCn1c(C(NC(=O)c2cnc(C)cn2)C2CCOC2)nc2ccc(C(F)(F)F)cc21 (single isomer, unassigned) [Example 147, N-{[1-ethyl-6-(trifluoromethyl)-1H-1,3-benzodiazol-2-yl](oxolan-3-yl)methyl}-5-methylpyrazine-2-carboxamide]	11
CCn1c([C@@H](NC(=O)c2cnc(C)cn2)C(C)(C)O)nc2cc(C(F)(F)F)ccc21 [Example 104, N-[(1R)-1-[1-ethyl-5-(trifluoromethyl)-1H-1,3-benzodiazol-2-yl]-2-hydroxy-2-methylpropyl]-5-methylpyrazine-2-carboxamide]	17
5-(difluoromethyl)-N-[(1S)-1-(1-ethyl-5-fluoro-1H-1,3-benzodiazol-2-yl)-2-methylpropyl]pyrazine-2-carboxamide [Example 59]	4
CCn1c([C@@H](NC(=O)c2cnc(C(F)F)cn2)C2CC2)nc2c(C)c(C#N)ccc21 [Example 33, N-[(S)-(5-cyano-1-ethyl-4-methyl-1H-1,3-benzodiazol-2-yl)(cyclopropyl)methyl]-5-(difluoromethyl)pyrazine-2-carboxamide]	4
Cc1cnc(C(=O)N[C@@H](CC2CC2)c2nc3cc(F)ccc3n2CCOC(F)F)cn1 [Example 95, N-[(1S)-2-cyclopropyl-1-{1-[2-(difluoromethoxy)ethyl]-5-fluoro-1H-1,3-benzodiazol-2-yl}ethyl]-5-methylpyrazine-2-carboxamide]	13
Cc1cnc(C(=O)N[C@H](c2nc3c(C)c(C#N)ccc3n2C)C2CC2)cn1 [Example 45, N-[(S)-(5-cyano-1,4-dimethyl-1H-1,3-benzodiazol-2-yl)(cyclopropyl)methyl]-5-methylpyrazine-2-carboxamide]	26
COCCn1c([C@@H](NC(=O)c2cnc(C)cn2)C2CC2)nc2cc(OC(F)(F)F)ccc21 [Example 12, N-[(S)-cyclopropyl[1-(2-methoxyethyl)-5-(trifluoromethoxy)-1H-1,3-benzodiazol-2-yl]methyl]-5-methylpyrazine-2-carboxamide]	2
CCn1c([C@@H](NC(=O)c2cnc(C)cn2)[C@@]2(O)CCOC2)nc2cc(C(F)(F)F)ccc21 [Example 167, N-[(R)-[1-ethyl-5-(trifluoromethyl)-1H-1,3-benzodiazol-2-yl][(3S)-3-hydroxyoxolan-3-yl]methyl]-5-methylpyrazine-2-carboxamide]	55
Cn1c([C@@H](NC(=O)c2cnc(C(F)F)cn2)C2CC2)nc2cc(F)ccc21 [Example 30, N-[(S)-cyclopropyl (5-fluoro-1-methyl-1H-1,3-benzodiazol-2-yl)methyl]-5-(difluoromethyl)pyrazine-2-carboxamide]	18
Cc1cnc(C(=O)N[C@H](c2nc3cc(C(F)(F)F)ccc3n2C)[C@H]2CCCO2)cn1 (single isomer, unassigned) [Example 75]	19
CCn1c([C@@H](NC(=O)c2cnc(C)cn2)C(C)C)nc2cc(F)ccc21 [Example 17, N-[(1S)-1-(1-ethyl-5-fluoro-1H-1,3-benzodiazol-2-yl)-2-methylpropyl]-5-methylpyrazine-2-carboxamide]	4

The next lines start with the values.

IC50 [nM]	Molecule
48	CO[C@H](C)[C@H](NC(=O)c1cnc(C)cn1)c1nc2cc(F)c(F)cc2n1C [Example 85, N-[(1R,2R)-1-(5,6-difluoro-1-methyl-1H-1,3-benzodiazol-2-yl)-2-methoxypropyl]-5-methylpyrazine-2-carboxamide]
5	Cc1cnc(C(=O)N[C@H](c2nc3cc(F)ccc3n2CC(F)F)C2CC2)cn1 [Example 10, N-[(S)-cyclopropyl[1-(2,2-difluoroethyl)-5-fluoro-1H-1,3-benzodiazol-2-yl]methyl]-5-methylpyrazine-2-carboxamide]
9	Cc1cnc(C(=O)N[C@H](c2nc3cc(F)ccc3n2CC(F)F)C(C)C)cn1 [Example 37, N-[(1S)-1-[1-(2,2-difluoroethyl)-5-fluoro-1H-1,3-benzodiazol-2-yl]-2-methylpropyl]-5-methylpyrazine-2-carboxamide]
15	COc1c(Cl)ccc2c1nc([C@@H](NC(=O)c1cnc(C)cn1)C1CC1)n2C [Example 112, N-[(S)-(5-chloro-4-methoxy-1-methyl-1H-1,3-benzodiazol-2-yl)(cyclopropyl)methyl]-5-methylpyrazine-2-carboxamide]
22	COCCn1c(C(NC(=O)c2cnc(C)cn2)C2CCCOC2)nc2cc(C(F)(F)F)ccc21 (single isomer, unassigned) [Example 103-1, N-{[1-(2-methoxyethyl)-5-(trifluoromethyl)-1H-1,3-benzodiazol-2-yl](oxan-3-yl)methyl}-5-methylpyrazine-2-carboxamide]

— patent publication US20240182453A1, “NOVEL SUBSTITUTED PYRAZINE-CARBOXAMIDE DERIVATIVES” (Boehringer Ingelheim International GmbH, priority 2022, published 2024)
